Key:
[1] = tested on: mouse UUO model of renal fibrosis; assay: Mouse unilateral ureter occlusion (UUO) model of renal fibrosis; format: in vivo, CD-1 mice; conditions: for Reduction of UUO-induced increase in composite Collagen Volume Fraction (CVF): ±SEM
Procedure: Test animals were allocated to weight-matched treatment groups on the day prior to the surgical procedure (Day −1). Male CD-1 mice (N=51; age, 7-8 weeks) underwent either sham surgery or total ligation of the right ureter, i.e. UUO, via aseptic laparotomy (FIG. 5). […] Another group received the anti-transforming growth factor TGF-β1 antibody, compound 1D11 (positive control) at 3 mg/kg/day from Days −1 to 4, injected intraperitoneally once daily, and vehicle control from Days 0 to 5. […] On Day 5, animals were anaesthetised, blood and tissues were collected prior to sacrifice.
Study endpoints included: a) body and kidney weights; b) fibrosis in obstructed kidney evaluated via histological quantitative image analysis of picrosirius red staining (ten images/depth/kidney obtained and assessed in a blinded fashion using light microscopy [at 200×] to enable sampling of 60-70% of the renal cortical area) and quantified by a composite Collagen Volume Fraction (CVF [% total area imaged]) score expressed as the average positive stain across three anatomically distinct (200-250 μM apart) tissue sections, or depths, from the obstructed kidney; c) hydroxyproline content of frozen renal cortical tissue biopsies as assessed by biochemical analyses; d) mRNA expression of profibrotic and inflammatory biomarkers (including MCP-1, Collagen 1a1, Collagen 3α1, TGF-β31, Fibronectin-1, α-smooth muscle actin (α-SMA) and connective tissue growth factor-1 (CTGF-1); assessed via Luminex® (Life Technologies™, Carlsbad, Calif., USA) assay with relative expression normalised to HPRT (hypoxanthine phosphoribosyltransferase).
Data are expressed as mean±standard error of mean (SEM). Statistical analyses were performed using GraphPad Prism® (GraphPad Software, Inc., San Diego, Calif., USA). Treatment differences between sham-surgery+vehiclecontrol and UUO+vehicle-control groups, and between UUO+vehicle-control and UUO+compound-1D11 (positive control) groups, were analysed by unpaired t-Test. Treatment differences between UUO+vehicle-control and CVC-dose groups were analysed by one-way ANOVA (analysis of variance) with Dunnett's test (post-hoc).

[2] = tested on: adults with CCR5 tropic HIV-1; assay: Study 202 post-hoc APRI and FIB-4 fibrosis index scores; format: in vivo, human
Procedure: APRI and FIB-4 scores were calculated. Change in score category from baseline (BL) to Weeks 24 and 48 was assessed in patients with non-missing data. Correlations between changes from BL in APRI and FIB-4 scores, and MCP-1 (CCR2 ligand) and sCD14 (inflammatory biomarker) levels were evaluated.

CCR2 = CCR2 (Homo sapiens, UniProt P41597); assay: CCR2 antagonism in in vitro, ex vivo and clinical studies; conditions: Studies 652-2-201 and 652-2-202
Sequence of CCR2 (P41597 whole entry): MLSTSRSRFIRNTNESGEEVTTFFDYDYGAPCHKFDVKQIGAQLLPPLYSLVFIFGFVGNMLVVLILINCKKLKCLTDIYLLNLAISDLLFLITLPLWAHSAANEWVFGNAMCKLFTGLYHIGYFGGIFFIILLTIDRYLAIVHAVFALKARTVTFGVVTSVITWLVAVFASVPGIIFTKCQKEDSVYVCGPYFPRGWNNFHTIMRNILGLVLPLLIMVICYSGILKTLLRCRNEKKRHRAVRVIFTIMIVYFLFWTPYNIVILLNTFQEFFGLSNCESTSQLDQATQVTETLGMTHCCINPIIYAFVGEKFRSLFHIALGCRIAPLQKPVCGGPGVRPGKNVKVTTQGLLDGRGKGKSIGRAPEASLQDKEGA
Description: (§1) Clinical evidence of CCR2 and CCR5 antagonism was established by measuring changes from baseline in plasma MCP-1 (a ligand of CCR2) concentrations and changes in plasma HIV-RNA (CCR5 co-receptor required for HIV entry), respectively, in these 2 Phase 2 Studies.

CCR5 = CCR5 (Homo sapiens, UniProt P51681); assay: CCR5 antagonism in in vitro, ex vivo and clinical studies; conditions: Studies 652-2-201 and 652-2-202
Sequence of CCR5 (P51681 whole entry): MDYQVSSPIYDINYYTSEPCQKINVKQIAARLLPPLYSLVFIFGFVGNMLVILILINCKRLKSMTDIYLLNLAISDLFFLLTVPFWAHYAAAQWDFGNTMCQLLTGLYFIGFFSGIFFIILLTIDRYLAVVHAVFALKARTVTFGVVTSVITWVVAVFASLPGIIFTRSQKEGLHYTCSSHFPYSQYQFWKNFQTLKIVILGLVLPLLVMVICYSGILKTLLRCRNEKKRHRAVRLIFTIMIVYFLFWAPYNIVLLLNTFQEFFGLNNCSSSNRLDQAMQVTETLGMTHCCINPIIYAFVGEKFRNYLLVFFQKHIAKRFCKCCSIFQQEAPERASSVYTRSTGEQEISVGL
Description: as §1

[3] = CVC plasma exposures in clinical studies; format: in vivo, human; conditions: same dosing conditions; Studies 652-1-111, 652-1-110, 652-2-202
[4] = CVC 7 and 20 mg/kg/day, compound 1D11 3 mg/kg/day, versus UUO+vehicle-control
[5] = Week 24, CVC pooled 100 and 200 mg, or EFV
[6] = Week 48, CVC pooled 100 and 200 mg, or EFV

CCCCOCCOc1ccc(-c2ccc3c(c2)C=C(C(=O)Nc2ccc([S@@+]([O-])Cc4cncn4CCC)cc2)CCCN3CC(C)C)cc1 [CVC, (S)-8-[4-(2-Butoxyethoxy)phenyl]-1-isobutyl-N-(4-{[(1-propyl-1H-imidazol-5-yl)methyl]sulfinyl}phenyl)-1,2,3,4-tetrahydro-1-benzazocine-5-carboxamide]
Reduction of UUO-induced increase in composite Collagen Volume Fraction (CVF) ([1]; CVC 7 mg/kg/day oral, Day 5): 28.6±8.8% | Reduction of UUO-induced increase in composite Collagen Volume Fraction (CVF) ([1]; CVC 20 mg/kg/day oral, Day 5, one outlier excluded): 31.8±6.8% | Tolerability after UUO surgery ([1]; CVC 100 mg/kg/day group (N=9)): terminated early due to moribundity | Effect on obstructed kidney hydroxyproline content ([1]; CVC 7 and 20 mg/kg/day, Day 5): Neither dose of CVC tested affected UUO-induced increases in obstructed kidney hydroxyproline content | Collagen 1a1, Collagen 3α1, TGF-β1 and Fibronectin-1 mRNA expression in obstructed kidney [1, 4]: these reductions, compared with the UUO+vehicle-control group, did not reach statistical significance | Obstructed kidney cortical MCP-1, α-SMA and CTGF-1 mRNA expression [1, 4]: did not have significant effects | Effect on body weight relative to UUO+vehicle-control ([1]; Day 5, CVC 7 mg/kg/day oral, compound 1D11 3 mg/kg/day i.p.): no effect on body weight | Decrease in body weight relative to UUO+vehicle-control ([1]; Day 5, CVC 20 mg/kg/day oral): 5% | Obstructed or contralateral kidney weight or kidney weight index versus UUO+vehicle-control ([1]; Day 5, CVC 7 and 20 mg/kg/day, compound 1D11 3 mg/kg/day): No significant treatment effects | Subjects in APRI category 0.5-1.5 [2, 5]: 7% | Subjects in APRI category <0.5 [2, 5]: 93% | Subjects in FIB-4 category 1.45-3.25 [2, 5]: 7% | Subjects in FIB-4 category <1.45 [2, 5]: 93% | Subjects with APRI decreased 1 category from baseline [2, 5]: 14% | Subjects with FIB-4 decreased 1 category from baseline [2, 5]: 13% | Subjects in APRI category 0.5-1.5 [2, 6]: 8% | Subjects in APRI category <0.5 [2, 6]: 91% | Subjects in APRI category >1.5 [2, 6]: 1% | Subjects in FIB-4 category 1.45-3.25 [2, 6]: 5% | Subjects in FIB-4 category <1.45 [2, 6]: 94% | Subjects in FIB-4 category >3.25 [2, 6]: 1% | Subjects with APRI decreased 1 category from baseline [2, 6]: 10% | Subjects with FIB-4 decreased 1 category from baseline [2, 6]: 14% | Subjects with improvements in APRI and FIB-4 scores over time ([2]; all CVC-treated subjects, pooled CVC 100 mg and 200 mg): ≥ 10% | Antagonism of CCR2 (CCR2): potent and concentration-dependent antagonism | Antagonism of CCR5 (CCR5): potent and concentration-dependent antagonism | CVC plasma exposures [3]: higher in non-HIV infected healthy volunteer subjects as compared to HIV-infected subjects

Reference: US20200268768A1, “CENICRIVIROC COMBINATION THERAPY FOR THE TREATMENT OF FIBROSIS” (Tobira Therapeutics, Inc., priority 2015, published 2020)
